Assay results: patent US20240058321A1, “FARNESYL-TRANSFERASE INHIBITORS AND KRAS INHIBITORS FOR TREATING KRAS MUTANT CANCERS” (SEMMELWEIS EGYETEM, priority 2021, published 2024)
pIC50: −log10 of the molar value. Where two headings read alike, the source gives them in different places.

What was measured:
SW1573 [1] = assay: 2D combinational test (SRB growth inhibition, six days); settings: Homo sapiens
Procedure: (§4) H358, SW1573, H1792, MIAPACA2, SW1990, SNUC2B, SW480, A549 and HCT116 were purchased from ATCC, while SW48 KRAS G12C colorectal cell line and H838 KRAS G12D lung cell line was bought from Horizon Discovery Ltd. Most of the cell lines were heterozygous for mutant KRAS, as in human cases used to occur, but we also used cell lines with homozygous mutant KRAS.
(§5) Cells were cultured in DMEM (Lonza, Switzerland; with 4500 mg/dm3 glucose, pyruvate and L-glutamine) supplemented with 10% fetal calf serum (EuroClone) and 1% penicillin-streptomycin-amphotericin (Lonza) in tissue culture flasks in a humidified 5% CO2 atmosphere at 37° C.
(§6) For in vitro experiments drugs were dissolved in DMSO in 10 mM stock concentration and stored at −80° C.
(§7) Cells that reached 70-80% confluency were trypsinized and counted using Luna II Automated Cell Counter. Cells were plated in 5000-10000 cells/well density (depending on the growth rate of the given cell line) on a 24 well plate. Next day the medium was replaced to fresh medium supplemented with the inhibitors. After 6 days, the wells were washed with DPBS (Lonza) and the cells were fixed by 10% trichloroacetic acid and stained with Sulphorodamine-B (SRB) (Sigma) dye for 15 minutes. Plates then were repeatedly washed with 1% acetic acid to remove excess dye. Protein-bound SRB was then dissolved in 10 mM Tris buffer (pH=7,4) and OD was measured at 570 nm using a microplate reader (EL800, BioTec Instruments, Winooski, VT). OD values were normalized to control. Transformed data then were used to calculate combinational index (CI) values using Compusyn software as described in https://www.combosyn.com/index.html. Data shown are results of three independent experiments.

SW1573 [2] = assay: siRNA knockdown experiment (SRB, IC50); format: cell-based, human; settings: Homo sapiens, SW1573, 144 h, 6-day-long treatment
Procedure: Cells were plated in 2500 and 7500 cells/well density (for non-targeting siRNA and HRAS siRNA treatment, respectively) on a 48we11 plate supplemented with pre-mixed Lipofectamine RNAIMAX Reagent (Thermo Fisher) and OptiMEM (Thermo Fisher) containing 2.5 pmol/well non-targeting or HRAS siRNA according to the manufacturer's instruction (reverse transfection protocol). […] On the 3rd day of the treatment, cells were supplemented with fresh pre-mixed 2.5 pmol/well siRNA diluted in Lipofectamine RNAiMAX Reagent and Optimem according to the manufacturer's instruction. […] OD values were normalized to control, and IC50 values were calculated from transformed data using GraphPad PRISM 5 software.

H358 xenografts = assay: In vivo tumor growth of subcutaneous xenografts; parameters: species or system female SCID mice; settings: AMG510 5 mg/kg i.p. and/or tipifarnib 40 mg/kg i.p., (day 1 = 1)
Procedure: (§1) H358 and SW1573 human lung adenocarcinoma cells (5×10^6 and 1×10^6, respectively) were subcutaneously injected in female SCID mice. Cells were injected in 200 μl DMEM:Matrigel mixture (ratio 1:1) based on preliminary experiments. When tumor reached approximately 100 mm^3 (H358 7 days, SW1573 26 days after injection), animals were randomized and treated intraperitoneally daily except for weekends. Drugs were dissolved in 60% DPBS, 34% PEG300, 5% DMSO and 1% Tween80. […] Controls received vehicle. Doses were determined based on previous literature, roughly using half of the used per os doses. The subcutaneous tumors were measured with a caliper and tumor volumes were calculated with the formula […] and expressed in mm^3. H358 experiment was terminated after 18 days and SW1573 after 25 days treatment. Tumors were measured upon harvest, then fixed with 4% PFA for histological analyses.
(§2) Animals were the properties of the Department of Experimental Pharmacology, National Institute of Oncology, H-1122, Budapest, Hungary. All experiments were carried out in accordance with the Guidelines for Animal Experiments and were approved for the Department of Experimental Pharmacology in the National Institute of Oncology, Budapest, Hungary.

SW1573 xenografts = assay: In vivo tumor growth of subcutaneous xenografts; parameters: species or system female SCID mice; settings: AMG510 25 mg/kg i.p. and/or tipifarnib 40 mg/kg i.p., (day 1 = 1)
Procedure: as §1, §2

SW1990 = assay: 2D combinational test (SRB growth inhibition, six days); format: cell-based, human; settings: Homo sapiens, SW1990, SW1990, read-out: Relative cell viability (MEAN)
Source text: (§3) OD values were normalized to control. […] Data shown are results of three independent experiments.

MIAPACA2 = assay: as above; settings: Homo sapiens, MIA PaCa-2, 144 h
Procedure: as §4, §5, §6, §7

PF97 = assay: as above; settings: Homo sapiens, 144 h
Procedure: as §4, §5, §6, §7

cancer patients = settings: patients, cited from earlier work
SW480 = assay: 2D combinational test (SRB growth inhibition, six days); format: cell-based, human; settings: Homo sapiens
Source text: as §3

[3] = group mean, in g (unit assumed)

Q: Which results are given for `Cn1cncc1[C@@](N)(c1ccc(Cl)cc1)c1ccc2c(c1)c(-c1cccc(Cl)c1)cc(=O)n2C` [tipifarnib]?
A: viability at 0.025 µM (SW1573 [1]; SW1573, read-out: Relative cell viability (MEAN), SW1573, 25 nM tipifarnib + 0 μM BI2852): 41.4%; viability at 0.05 µM (SW1573 [1]; SW1573, read-out: Relative cell viability (MEAN), SW1573, 50 nM tipifarnib + 0 μM BI2852): 35.4%; viability at 0.1 µM (SW1573 [1]; SW1573, read-out: Relative cell viability (MEAN), SW1573, 100 nM tipifarnib + 0 μM BI2852): 29.2%; pIC50 (SW1573 [2]; Cont (non-targeting) siRNA): 8.34; pIC50 (SW1573 [2]; HRAS siRNA): 7.98; Weights of the tumors at the end of the experiment (H358 xenografts; animal 1, in g (unit assumed)): 0.182; Weights of the tumors at the end of the experiment (H358 xenografts; animal 2, in g (unit assumed)): 1.599; Weights of the tumors at the end of the experiment (H358 xenografts; animal 3, in g (unit assumed)): 1.023; Weights of the tumors at the end of the experiment (H358 xenografts; animal 4, in g (unit assumed)): 0.223; Weights of the tumors at the end of the experiment (H358 xenografts; animal 5, in g (unit assumed)): 0.225; Weights of the tumors at the end of the experiment (H358 xenografts; animal 6, in g (unit assumed)): 0.205; Weights of the tumors at the end of the experiment (H358 xenografts; animal 7, in g (unit assumed)): 0.239; Weights of the tumors at the end of the experiment, MEAN (H358 xenografts; [3]): 0.528; Weights of the tumors at the end of the experiment (SW1573 xenografts; animal 1, in g (unit assumed)): 0.5323; Weights of the tumors at the end of the experiment (SW1573 xenografts; animal 2, in g (unit assumed)): 0.2277; Weights of the tumors at the end of the experiment (SW1573 xenografts; animal 3, in g (unit assumed)): 0.3143; Weights of the tumors at the end of the experiment (SW1573 xenografts; animal 5, in g (unit assumed)): 0.2239; Weights of the tumors at the end of the experiment (SW1573 xenografts; animal 6, in g (unit assumed)): 0.2604; Weights of the tumors at the end of the experiment (SW1573 xenografts; animal 7, in g (unit assumed)): 1.2243; Weights of the tumors at the end of the experiment, MEAN (SW1573 xenografts; [3]): 0.4638; viability at 0.1 µM (SW1990; 100 nM tipifarnib + 0 μM BI2852): 75.6%; viability at 0.1 µM (SW1990; 100 nM tipifarnib + 0 nM MRTX1133): 80.2%; viability at 0.5 µM (SW1990; 500 nM tipifarnib + 0 μM BI2852): 67%; viability at 0.5 µM (SW1990; 500 nM tipifarnib + 0 nM MRTX1133): 70.3%; viability at 1 µM (SW1990; 1000 nM tipifarnib + 0 μM BI2852): 55%; viability at 1 µM (SW1990; 1000 nM tipifarnib + 0 nM MRTX1133): 63.4%

Q: Which results are given for `C=CC(=O)N1CCN(c2nc(=O)n(-c3c(C)ccnc3C(C)C)c3nc(-c4c(O)cccc4F)c(F)cc23)[C@@H](C)C1` [AMG-510]?
A: viability at 0.01 µM (SW1573 [1]; SW1573, read-out: Viability data (MEAN), SW1573, BPH1222 0 μM + AMG-510 10 nM): 99.5%; viability at 0.025 µM (SW1573 [1]; SW1573, read-out: Viability data (MEAN), SW1573, BPH1222 0 μM + AMG-510 25 nM): 99.8%; viability at 0.05 µM (SW1573 [1]; SW1573, read-out: Viability data (MEAN), SW1573, BPH1222 0 μM + AMG-510 50 nM): 97.7%; viability at 0.01 µM (SW1573 [1]; SW1573, read-out: Viability data (MEAN), SW1573, SIMVASTATIN 0 μM + AMG-510 10 nM): 96.6%; viability at 0.025 µM (SW1573 [1]; SW1573, read-out: Viability data (MEAN), SW1573, SIMVASTATIN 0 μM + AMG-510 25 nM): 92.5%; viability at 0.05 µM (SW1573 [1]; SW1573, read-out: Viability data (MEAN), SW1573, SIMVASTATIN 0 μM + AMG-510 50 nM): 89.9%

Q: For `C=C(F)C(=O)N1CCN(c2nc(OC[C@@H]3CCCN3C)nc3c2CCN(c2cccc4cccc(Cl)c24)C3)C[C@@H]1CC#N` [adagrasib], which viability at 0.025 µM (MIAPACA2; read-out: Relative cell viability, 6/A2, 25 nM adagrasib + 0 nM tipifarnib) is on record?
A: Its viability at 0.025 µM is 50.4%.

Q: What about the viability at 0.05 µM (MIAPACA2; read-out: Relative cell viability, 6/A2, 50 nM adagrasib + 0 nM tipifarnib) of the same molecule?
A: The viability at 0.05 µM was 38.3%.

Q: What about the viability at 0.1 µM (MIAPACA2; read-out: Relative cell viability, 6/A2, 100 nM adagrasib + 0 nM tipifarnib) of the same molecule?
A: Its viability at 0.1 µM is 28.9%.

Q: What about the viability at 0.025 µM (MIAPACA2; read-out: Relative cell viability, 7/A2, 25 nM adagrasib + 0 nM lonafarnib) of the same molecule?
A: Its viability at 0.025 µM is 50.8%.

Q: And the viability at 0.05 µM (MIAPACA2; read-out: Relative cell viability, 7/A2, 50 nM adagrasib + 0 nM lonafarnib)?
A: Its viability at 0.05 µM is 37.5%.

Q: And the viability at 0.1 µM (MIAPACA2; read-out: Relative cell viability, 7/A2, 100 nM adagrasib + 0 nM lonafarnib)?
A: The viability at 0.1 µM was 27.3%.

Q: And the viability at 0.025 µM (PF97; read-out: Relative cell viability, 6/A1, 25 nM adagrasib + 0 nM tipifarnib)?
A: Its viability at 0.025 µM is 58.2%.

Q: And the viability at 0.1 µM (PF97; read-out: Relative cell viability, 6/A1, 100 nM adagrasib + 0 nM tipifarnib)?
A: Its viability at 0.1 µM is 46.7%.

Q: And the viability at 0.5 µM (PF97; read-out: Relative cell viability, 6/A1, 500 nM adagrasib + 0 nM tipifarnib)?
A: Its viability at 0.5 µM is 45.9%.

Q: What about the viability at 0.01 µM (PF97; read-out: Relative cell viability, 7/A1, 10 nM adagrasib + 0 nM lonafarnib) of the same molecule?
A: Its viability at 0.01 µM is 52.5%.

Q: What about the viability at 0.1 µM (PF97; read-out: Relative cell viability, 7/A1, 100 nM adagrasib + 0 nM lonafarnib) of the same molecule?
A: Its viability at 0.1 µM is 29.2%.

Q: And the viability at 0.5 µM (PF97; read-out: Relative cell viability, 7/A1, 500 nM adagrasib + 0 nM lonafarnib)?
A: Its viability at 0.5 µM is 19.4%.

Q: And the viability at 0.01 µM (SW1573 [1]; SW1573, 144 h, read-out: Relative cell viability, 6/A3, SW1573, 10 nM adagrasib + 0 nM tipifarnib, six days)?
A: The viability at 0.01 µM was 85.3%.

Q: What about the viability at 0.025 µM (SW1573 [1]; SW1573, 144 h, read-out: Relative cell viability, 6/A3, SW1573, 25 nM adagrasib + 0 nM tipifarnib, six days) of the same molecule?
A: Its viability at 0.025 µM is 77.3%.

Q: And the viability at 0.1 µM (SW1573 [1]; SW1573, 144 h, read-out: Relative cell viability, 6/A3, SW1573, 100 nM adagrasib + 0 nM tipifarnib, six days)?
A: Its viability at 0.1 µM is 67.2%.

Q: What about the viability at 0.01 µM (SW1573 [1]; SW1573, 144 h, read-out: Relative cell viability, 7/A3, SW1573, 10 nM adagrasib + 0 nM lonafarnib, six days) of the same molecule?
A: The viability at 0.01 µM was 86.6%.

Q: And the viability at 0.025 µM (SW1573 [1]; SW1573, 144 h, read-out: Relative cell viability, 7/A3, SW1573, 25 nM adagrasib + 0 nM lonafarnib, six days)?
A: The viability at 0.025 µM was 79.4%.

Q: And the viability at 0.1 µM (SW1573 [1]; SW1573, 144 h, read-out: Relative cell viability, 7/A3, SW1573, 100 nM adagrasib + 0 nM lonafarnib, six days)?
A: The viability at 0.1 µM was 72.5%.

Q: Which results are given for `NC(=O)N1CCC(CC(=O)N2CCC([C@H]3c4ncc(Br)cc4CCc4cc(Cl)cc(Br)c43)CC2)CC1` [lonafarnib]?
A: Objective responses (cancer patients; colorectal cancer): no objective responses; Progression-free or overall survival (cancer patients; ovarian cancer, in combination with chemotherapy): does not improve; viability at 0.5 µM (SW480; 500 nM lonafarnib + 0 μM BI2852, read-out: Relative cell viability (MEAN)): 72%; viability at 1 µM (SW480; 1000 nM lonafarnib + 0 μM BI2852, read-out: Relative cell viability (MEAN)): 63.9%; viability at 2 µM (SW480; 2000 nM lonafarnib + 0 μM BI2852, read-out: Relative cell viability (MEAN)): 55.7%; viability at 0.2 µM (SW1990; 200 nM lonafarnib + 0 nM MRTX1133): 83.1%; viability at 1 µM (SW1990; 1000 nM lonafarnib + 0 nM MRTX1133): 64.8%; viability at 2 µM (SW1990; 2000 nM lonafarnib + 0 nM MRTX1133): 57.6%
